Assay results as given in patent US12162888B2, “Carboxamides as ubiquitin-specific protease inhibitors” (Valo Early Discovery, Inc., priority 2018, dated 2024).
pIC50: −log10 of the molar value.

Molecular target: T1, USP28 (His-tagged USP28-FL-mammalian) (Homo sapiens, UniProt Q96RU2)
T1 construct: Expression of USP28 (1-1077)-TEV-6*His (pTT5 vector) was carried out in Expi293f cells; made in house; host or cells: Expi293F cells (pTT5 vector)
T1 sequence (Q96RU2 1-1077): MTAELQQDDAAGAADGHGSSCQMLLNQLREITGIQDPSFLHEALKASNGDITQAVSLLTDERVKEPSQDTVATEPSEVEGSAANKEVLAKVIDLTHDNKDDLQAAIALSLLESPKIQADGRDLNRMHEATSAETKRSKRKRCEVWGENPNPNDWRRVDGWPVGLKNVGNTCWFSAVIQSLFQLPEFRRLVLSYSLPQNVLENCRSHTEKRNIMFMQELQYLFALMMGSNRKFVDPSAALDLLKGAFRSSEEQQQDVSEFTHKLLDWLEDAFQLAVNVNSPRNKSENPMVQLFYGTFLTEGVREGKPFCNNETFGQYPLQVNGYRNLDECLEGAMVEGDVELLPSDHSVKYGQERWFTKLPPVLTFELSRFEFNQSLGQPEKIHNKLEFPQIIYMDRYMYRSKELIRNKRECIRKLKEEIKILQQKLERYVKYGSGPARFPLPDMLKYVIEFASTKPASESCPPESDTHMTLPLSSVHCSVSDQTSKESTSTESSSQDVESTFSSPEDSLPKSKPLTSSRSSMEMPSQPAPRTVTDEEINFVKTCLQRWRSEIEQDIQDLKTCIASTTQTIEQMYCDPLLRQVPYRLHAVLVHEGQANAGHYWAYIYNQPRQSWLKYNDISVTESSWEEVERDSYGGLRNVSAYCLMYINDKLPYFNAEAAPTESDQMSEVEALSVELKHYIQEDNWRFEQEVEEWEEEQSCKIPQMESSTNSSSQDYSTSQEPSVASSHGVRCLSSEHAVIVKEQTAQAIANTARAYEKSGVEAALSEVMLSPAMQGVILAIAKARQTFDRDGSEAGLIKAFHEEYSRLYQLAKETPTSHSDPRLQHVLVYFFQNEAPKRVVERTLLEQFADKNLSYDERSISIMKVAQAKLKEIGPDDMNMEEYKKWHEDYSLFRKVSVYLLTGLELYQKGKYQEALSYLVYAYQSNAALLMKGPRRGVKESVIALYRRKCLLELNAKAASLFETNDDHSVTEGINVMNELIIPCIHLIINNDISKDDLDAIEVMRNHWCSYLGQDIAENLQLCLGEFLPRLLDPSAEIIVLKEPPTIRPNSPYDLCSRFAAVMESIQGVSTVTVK
Experiment: Ubiquitin-Rhodamine 110 Assay for USP28 Activity, Example A-1(a)
Assay type: biochemical
Details: Ubiquitin-Rhodamine 110 assay, read-out: USP28 A-1(a) IC50 range
In short: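 Full-length His-tagged human USP28 (1-1077), expressed in Expi293F cells, was used at […] with 25 nM Ub-Rh110 (<<Km) in 20 mM Tris pH 8.0, 3 mM BME, 0.03% BGG and 0.01% Triton X-100. Compounds (25 μM-1.3 nM, 10-point) were preincubated with enzyme for 30 min, and the reaction ran 45 min at room temperature before a citric acid stop. Fluorescence was read at 485/535 nm, and IC50 came from 4-parameter fits of percent inhibition.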

SMILES	pIC50
Cc1ccc2c(N)c(C(=O)N[C@H]3CCc4nc(N5CC6CC(C5)N6)ccc4C3)sc2n1 [Example 23-10, 3-amino-N-[(6S)-2-{3,6-diazabicyclo[3.1.1]heptan-3-yl}-5,6,7,8-tetrahydroquinolin-6-yl]-6-methylthieno[2,3-b]pyridine-2-carboxamide]	6.70 to 7.30
CO[C@@H]1CN(c2ccc3c(c2F)OC[C@H](NC(=O)c2sc4nc(C)ccc4c2N)C3)C[C@H]1N [Example 91, 3-amino-N-[(3R)-7-[(3R,4R)-3-amino-4-methoxypyrrolidin-1-yl]-8-fluoro-3,4-dihydro-2H-1-benzopyran-3-yl]-6-methylthieno[2,3-b]pyridine-2-carboxamide]	5.70 to 6.70

Same assay, conditions: Ubiquitin-Rhodamine 110 biochemical assay, read-out: USP28 A-1(a) IC50 range

SMILES	pIC50
Cc1ccc2c(N)c(C(=O)N[C@H]3CCc4nc(N5C[C@@H](N)[C@]6(C5)OCC[C@H]6C)ccc4C3)sc2n1 [Example 512, 3-amino-N-[(6S)-2-[(4R,5S,9R)-9-amino-4-methyl-1-oxa-7-azaspiro[4.4]nonan-7-yl]-5,6,7,8-tetrahydroquinolin-6-yl]-6-methylthieno[2,3-b]pyridine-2-carboxamide]	6.70 to 7.30
Cc1ccc2c(N)c(C(=O)N[C@H]3CCc4nc(N5C[C@@H](N)CC(F)(F)C5)ccc4C3)sc2n1 [Example 518, 3-amino-N-[(6S)-2-[(5S)-5-amino-3,3-difluoropiperidin-1-yl]-5,6,7,8-tetrahydroquinolin-6-yl]-6-methylthieno[2,3-b]pyridine-2-carboxamide]	7.30 to 9.00
COC[C@@H](C)O[C@@H]1CN(c2ccc3c(n2)CC[C@H](NC(=O)c2sc4nc(C)ccc4c2N)C3)C[C@H]1N [Example 483, 3-amino-N-[(6S)-2-[(3R,4R)-3-amino-4-{[(2R)-1-methoxypropan-2-yl]oxy}pyrrolidin-1-yl]-5,6,7,8-tetrahydroquinolin-6-yl]-6-methylthieno[2,3-b]pyridine-2-carboxamide]	6.70 to 7.30
CN[C@H]1CN(c2ccc3c(n2)CC[C@H](NC(=O)c2sc4nc(C)ccc4c2N)C3)C[C@]12CCCCO2 [Example 502, 3-amino-6-methyl-N-[(6S)-2-[(4S,5R)-4-(methylamino)-6-oxa-2-azaspiro[4.5]decan-2-yl]-5,6,7,8-tetrahydroquinolin-6-yl]thieno[2,3-b]pyridine-2-carboxamide]	6.70 to 7.30
CN[C@H]1CN(c2ccc3c(n2)CC[C@H](NC(=O)c2sc4nc(C)c(F)cc4c2N)C3)C[C@@H]1COC [Example 515, 3-amino-5-fluoro-N-[(6S)-2-[(3S,4R)-3-(methoxymethyl)-4-(methylamino)pyrrolidin-1-yl]-5,6,7,8-tetrahydroquinolin-6-yl]-6-methylthieno[2,3-b]pyridine-2-carboxamide]	6.70 to 7.30
CO[C@@H]1CN(c2ccc3c(n2)CC[C@H](NC(=O)c2sc4nc(C)cnc4c2N)C3)C[C@@H]1N [Example 491, 7-amino-N-[(6S)-2-[(3S,4R)-3-amino-4-methoxypyrrolidin-1-yl]-5,6,7,8-tetrahydroquinolin-6-yl]-3-methylthieno[2,3-b]pyrazine-6-carboxamide]	6.70 to 7.30
CN[C@@H]1CN(c2ccc3c(n2)CC[C@H](NC(=O)c2sc4nc(C)ccc4c2N)C3)C[C@@]12CCCCO2 [Example 503, 3-amino-6-methyl-N-[(6S)-2-[(4R,5S)-4-(methylamino)-6-oxa-2-azaspiro[4.5]decan-2-yl]-5,6,7,8-tetrahydroquinolin-6-yl]thieno[2,3-b]pyridine-2-carboxamide]	6.70 to 7.30
CN[C@@H]1CN(c2ccc3c(n2)CC[C@H](NC(=O)c2sc4nc(C)ccc4c2N)C3)C[C@@H]1COC [Example 489, 3-amino-N-[(6S)-2-[(3S,4S)-3-(methoxymethyl)-4-(methylamino)pyrrolidin-1-yl]-5,6,7,8-tetrahydroquinolin-6-yl]-6-methylthieno[2,3-b]pyridine-2-carboxamide]	6.70 to 7.30
CN[C@@H]1CN(c2ccc3c(n2)CC[C@H](NC(=O)c2sc4nc(C)cnc4c2N)C3)C[C@@H]1OC [Example 497, 7-amino-N-[(6S)-2-[(3S,4R)-3-methoxy-4-(methylamino)pyrrolidin-1-yl]-5,6,7,8-tetrahydroquinolin-6-yl]-3-methylthieno[2,3-b]pyrazine-6-carboxamide]	5.70 to 6.70
Cc1ccc2c(N)c(C(=O)N[C@H]3CCc4nc(N5C[C@H](COC(F)(F)F)[C@H](N)C5)ccc4C3)sc2n1 [Example 485, 3-amino-N-[(6S)-2-[(3S,4S)-3-amino-4-[(trifluoromethoxy)methyl]pyrrolidin-1-yl]-5,6,7,8-tetrahydroquinolin-6-yl]-6-methylthieno[2,3-b]pyridine-2-carboxamide]	6.70 to 7.30
Cc1ccc2c(N)c(C(=O)N[C@H]3CCc4nc(N5C[C@H](N)[C@@]6(C5)OCC[C@H]6C)ccc4C3)sc2n1 [Example 510, 3-amino-N-[(6S)-2-[(4R,5R,9S)-9-amino-4-methyl-1-oxa-7-azaspiro[4.4]nonan-7-yl]-5,6,7,8-tetrahydroquinolin-6-yl]-6-methylthieno[2,3-b]pyridine-2-carboxamide]	6.70 to 7.30

Same assay, conditions: biochemical IC50 range, Ubiquitin-Rhodamine 110 assay, read-out: USP28 A-1(a)

SMILES	pIC50
CO[C@]12CCN[C@H]1CN(c1ccc3c(c1)OC[C@H](NC(=O)c1sc4nc(C)ccc4c1N)C3)C2 [Example 666, N-[(3R)-7-[(3aS,6aS)-3a-methoxyoctahydropyrrolo[2,3-c]pyrrol-5-yl}-3,4-dihydro-2H-1-benzopyran-3-yl]-3-amino-6-methylthicno[2,3-b]pyridine-2-carboxamide]	7.30 to 9.00
Cc1ccc2c(N)c(C(=O)N[C@H]3COc4cc(OC[C@H]5CNC[C@@H]5C(F)(F)F)ccc4C3)sc2n1 [Example 688, 3-amino-6-methyl-N-[(3R)-7-{[(3R,4R)-4-(trifluoromethyl)pyrrolidin-3-yl]methoxy}-3,4-dihydro-2H-1-benzopyran-3-yl]thieno[2,3-b]pyridine-2-carboxamide]	7.30 to 9.00
Cc1ccc2c(N)c(C(=O)N[C@H]3COc4nc(N5C[C@H](CF)[C@H](N)C5)ccc4C3)sc2n1 [Example 540, 3-amino-N-[(3R)-7-[(3S,4S)-3-amino-4-(fluoromethyl)pyrrolidin-1-yl]-2H,3H,4H-pyrano[2,3-b]pyridin-3-yl]-6-methylthieno[2,3-b]pyridine-2-carboxamide]	6.70 to 7.30
CN[C@@H]1CN(c2ccc3c(c2)OC[C@H](NC(=O)c2sc4nc(C)ccc4c2N)C3)C[C@@H]1COC [Example 680, 3-amino-N-[(3R)-7-[(3S,4S)-3-(methoxymethyl)-4-(methylamino)pyrrolidin-1-yl]-3,4-dihydro-2H-1-benzopyran-3-yl]-6-methylthieno[2,3-b]pyridine-2-carboxamide]	7.30 to 9.00
COC1CCCN(c2cc(F)c3c(c2)OCC(NC(=O)c2sc4nc(C)ccc4c2N)C3)CC1N [Example 690, 3-amino-N-[(3R)-7-[(3S,4S)-3-amino-4-methoxyazcpan-1-yl]-5-fluoro-3,4-dihydro-2H-1-benzopyran-3-yl]-6-methylthieno[2,3-b]pyridine-2-carboxamide]	7.30 to 9.00
CN[C@@H]1CN(c2cc(F)c3c(c2)OC[C@H](NC(=O)c2sc4nc(C)ncc4c2N)C3)C[C@H]1COC [Example 695, 5-amino-N-[(3R)-5-fluoro-7-[(3R,4S)-3-(methoxymethyl)-4-(methylamino)pyrrolidin-1-yl]-3,4-dihydro-2H-1-benzopyran-3-yl]-2-methylthieno[2,3-d]pyrimidine-6-carboxamide]	5.70 to 6.70
Cc1ccc2c(N)c(C(=O)N[C@H]3COc4cc(N5C[C@H](N)[C@@]6(CCCCO6)C5)ccc4C3)sc2n1 [Example 611-1, 3-amino-N-[(3R)-7-[(4S,5R)-4-amino-6-oxa-2-azaspiro[4.5]decan-2-yl]-3,4-dihydro-2H-1-benzopyran-3-yl]-6-methylthieno[2,3-b]pyridine-2-carboxamide]	7.30 to 9.00
Cc1ccc2c(N)c(C(=O)N[C@H]3COc4cc(N5C[C@@H](N)[C@@]6(CCCCO6)C5)ccc4C3)sc2n1 [Example 653, 3-amino-N-[(3R)-7-[(4R,5R)-4-amino-6-oxa-2-azaspiro[4.5]decan-2-yl]-3,4-dihydro-2H-1-benzopyran-3-yl]-6-methylthieno[2,3-b]pyridine-2-carboxamide]	7.30 to 9.00
